Measurements: US20020045638A1, “Method of treating estrogen receptor positive carcinoma” (priority 2000, published 2002)

Key:
[1] = tested on: BG-1 human ovarian cancer cells; assay: Inhibition of growth of BG-1 ovarian cancer cells (MTT), with MacSynergy II synergy analysis; assay type: cell-based; details: for Antagonsim / Synergy: BG-1, antiestrogen in combination with CCI-779, MacSynergy II, Bliss independence model; for Percent Inhibition: CCI-779 0 nM
Method: In these test procedures, rapamycin 42-ester with 3-hydroxy-2-(hydroxymethyl)-2-methylpropionic acid was used as a representative rapamycin, and 2-(4-hydroxy-phenyl)-3-methyl-1-[4-(2-piperdin-1-yl-ethoxy)-benzyl-1 H-indol-5-ol, raloxifene, and 4-hydroxytamoxifen were used as representative antiestrogens.
One day before the experiment, cells were plated in 96-well plates at a cell density of 2,500 cells/well in IMEM medium supplemented with 10% fetal bovine serum. The next day, cells were treated with various concentrations of antiestrogen and rapamycin 42-ester with 3-hydroxy-2-(hydroxymethyl)-2-methylpropionic acid (referred to as CCI-779 in the tables below). Five or six-days later, cell growth was monitored.

[2] = tested on: MCF-7 human breast cancer cells; assay: Inhibition of growth of MCF-7 breast cancer cells (MTT), with MacSynergy II synergy analysis; details: for Antagonsim / Synergy: MCF-7, antiestrogen in combination with CCI-779, MacSynergy II, Bliss independence model; for synergy of growth inhibition (in words): MCF-7 cells, in combination with CCI-779;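 on all read-outs here: cells treated five or six days with single agents or combinations, growth read by MTT, synergy surface equals observed % inhibition minus Bliss additive prediction, values under 0% signal antagonism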
Method: MCF-7 human breast cancer cells were maintained at 37° C. in a humidified atmosphere of 5% CO2 and 95% air in IMEM medium supplemented with 10% fetal bovine serum. […] One day before the experiment, cells were plated in 96-well plates at a cell density of 2,500 cells/well in IMEM medium supplemented with 10% fetal bovine serum. The next day, cells were treated with various concentrations of antiestrogen and rapamycin 42-ester with 3-hydroxy-2-(hydroxymethyl)-2-methylpropionic acid (referred to as CCI-779 in the tables below). Five or six-days later, cell growth was monitored. MTT solution (20 ul) (0.5 mg/ml) was added to each well and cells were incubated for an additional 4 h. The solution was then removed and 150 ul of DMSO added. The intensity of dark blue color corresponding to number of cells was read at 540 nm with an automated plate reader.
Briefly, theoretical additive interactions were calculated from the dose-response curves of each individual drug based on Bliss independence model. The calculated additive surface was then subtracted from the experimental surface to obtain a synergy surface representing % inhibition above the calculated additive value-synergy index. […] Likewise, any peak below the 0% plane is indicative of antagonism.

SMILES: O=C(c1ccc(OCCN2CCCCC2)cc1)c1c(-c2ccc(O)cc2)sc2cc(O)ccc12 [RAL, raloxifene, reference compound]
- Antagonsim [1]: −1.8 μM^2%
- Synergy [1]: 40.3 μM^2%
- Percent Inhibition ([1]; Table I, Raloxifene 0.25 nM): 0.74%
- Percent Inhibition ([1]; Table I, Raloxifene 0.5 nM): −3.32%
- Percent Inhibition ([1]; Table I, Raloxifene 1 nM): 7.79%
- Percent Inhibition ([1]; Table I, Raloxifene 2 nM): 9.85%
- Percent Inhibition ([1]; Table I, Raloxifene 3 nM): 11.5%
- Percent Inhibition ([1]; Table I, Raloxifene 4 nM): 14.49%
- Percent Inhibition ([1]; Table I, Raloxifene 5 nM): 14.04%
- Antagonsim [2]: 0.0 μM^2%
- Synergy [2]: 113.0 μM^2%
- synergy of growth inhibition (in words) [2]: synergistic inhibition
- Percent Inhibition ([2]; Table C, CCI-779 0 nM, Raloxifene 0.25 nM): −1.4%
- Percent Inhibition ([2]; Table C, CCI-779 0 nM, Raloxifene 0.5 nM): −5.17%
- Percent Inhibition ([2]; Table C, CCI-779 0 nM, Raloxifene 1 nM): 17.3%
- Percent Inhibition ([2]; Table C, CCI-779 0 nM, Raloxifene 2 nM): 36.78%
- Percent Inhibition ([2]; Table C, CCI-779 0 nM, Raloxifene 3 nM): 42.4%
- Percent Inhibition ([2]; Table C, CCI-779 0 nM, Raloxifene 4 nM): 50.49%
- Percent Inhibition ([2]; Table C, CCI-779 0 nM, Raloxifene 5 nM): 50.5%

SMILES: CCC(=C(c1ccc(O)cc1)c1ccc(OCCN(C)C)cc1)c1ccccc1 [TAM, 4-hydroxytamoxifen, reference compound]
- Antagonsim [1]: 0.0 μM^2%
- Synergy [1]: 0.3 μM^2%
- Percent Inhibition ([1]; Table H, 4-Hydroxytamoxifen 5 nM): 23.99%
- Percent Inhibition ([1]; Table H, 4-Hydroxytamoxifen 10 nM): 21.39%
- Percent Inhibition ([1]; Table H, 4-Hydroxytamoxifen 20 nM): 35.05%
- Percent Inhibition ([1]; Table H, 4-Hydroxytamoxifen 30 nM): 36.43%
- Percent Inhibition ([1]; Table H, 4-Hydroxytamoxifen 40 nM): 39.51%
- Percent Inhibition ([1]; Table H, 4-Hydroxytamoxifen 50 nM): 47.73%
- Percent Inhibition ([1]; Table H, 4-Hydroxytamoxifen 100 nM): 50%
- Antagonsim [2]: 0.0 μM^2%
- Synergy [2]: 77.00 μM^2%
- synergy of growth inhibition (in words) [2]: synergistic inhibition
- Percent Inhibition ([2]; Table B, CCI-779 0 nM, 4-Hydroxytamoxifen 5 nM): 20.44%
- Percent Inhibition ([2]; Table B, CCI-779 0 nM, 4-Hydroxytamoxifen 10 nM): 22.75%
- Percent Inhibition ([2]; Table B, CCI-779 0 nM, 4-Hydroxytamoxifen 20 nM): 39.85%
- Percent Inhibition ([2]; Table B, CCI-779 0 nM, 4-Hydroxytamoxifen 30 nM): 41.46%
- Percent Inhibition ([2]; Table B, CCI-779 0 nM, 4-Hydroxytamoxifen 40 nM): 39.09%
- Percent Inhibition ([2]; Table B, CCI-779 0 nM, 4-Hydroxytamoxifen 50 nM): 47.19%
- Percent Inhibition ([2]; Table B, CCI-779 0 nM, 4-Hydroxytamoxifen 100 nM): 36.99%
- Percent Inhibition ([2]; Table F, 4-Hydroxytamoxifen 0 nM + 4-Hydroxytamoxifen 5 nM): 25.02%
- Percent Inhibition ([2]; Table F, 4-Hydroxytamoxifen 0 nM + 4-Hydroxytamoxifen 10 nM): 37.37%
- Percent Inhibition ([2]; Table F, 4-Hydroxytamoxifen 0 nM + 4-Hydroxytamoxifen 20 nM): 44.9%
- Percent Inhibition ([2]; Table F, 4-Hydroxytamoxifen 0 nM + 4-Hydroxytamoxifen 30 nM): 42.42%
- Percent Inhibition ([2]; Table F, 4-Hydroxytamoxifen 0 nM + 4-Hydroxytamoxifen 40 nM): 46.46%
- Percent Inhibition ([2]; Table F, 4-Hydroxytamoxifen 0 nM + 4-Hydroxytamoxifen 50 nM): 45.78%
- Percent Inhibition ([2]; Table F, 4-Hydroxytamoxifen 0 nM + 4-Hydroxytamoxifen 100 nM): 49.99%
- Percent Inhibition ([2]; Table F, 4-Hydroxytamoxifen 5 nM + 4-Hydroxytamoxifen 0 nM): 12.73%
- Percent Inhibition ([2]; Table F, 4-Hydroxytamoxifen 5 nM + 4-Hydroxytamoxifen 5 nM): 37.12%
- Percent Inhibition ([2]; Table F, 4-Hydroxytamoxifen 5 nM + 4-Hydroxytamoxifen 10 nM): 49.04%
- Percent Inhibition ([2]; Table F, 4-Hydroxytamoxifen 5 nM + 4-Hydroxytamoxifen 20 nM): 50.12%
- Percent Inhibition ([2]; Table F, 4-Hydroxytamoxifen 5 nM + 4-Hydroxytamoxifen 30 nM): 50.39%
- Percent Inhibition ([2]; Table F, 4-Hydroxytamoxifen 5 nM + 4-Hydroxytamoxifen 40 nM): 54.19%
- Percent Inhibition ([2]; Table F, 4-Hydroxytamoxifen 5 nM + 4-Hydroxytamoxifen 50 nM): 53.75%
- Percent Inhibition ([2]; Table F, 4-Hydroxytamoxifen 5 nM + 4-Hydroxytamoxifen 100 nM): 59.23%
- Percent Inhibition ([2]; Table F, 4-Hydroxytamoxifen 10 nM + 4-Hydroxytamoxifen 0 nM): 27.87%
- Percent Inhibition ([2]; Table F, 4-Hydroxytamoxifen 10 nM + 4-Hydroxytamoxifen 5 nM): 47.71%
- Percent Inhibition ([2]; Table F, 4-Hydroxytamoxifen 10 nM + 4-Hydroxytamoxifen 10 nM): 47.11%
- Percent Inhibition ([2]; Table F, 4-Hydroxytamoxifen 10 nM + 4-Hydroxytamoxifen 20 nM): 45.86%
- Percent Inhibition ([2]; Table F, 4-Hydroxytamoxifen 10 nM + 4-Hydroxytamoxifen 30 nM): 47.6%
- Percent Inhibition ([2]; Table F, 4-Hydroxytamoxifen 10 nM + 4-Hydroxytamoxifen 40 nM): 53.22%
- Percent Inhibition ([2]; Table F, 4-Hydroxytamoxifen 10 nM + 4-Hydroxytamoxifen 50 nM): 56.54%
- Percent Inhibition ([2]; Table F, 4-Hydroxytamoxifen 10 nM + 4-Hydroxytamoxifen 100 nM): 58.11%
- Percent Inhibition ([2]; Table F, 4-Hydroxytamoxifen 50 nM + 4-Hydroxytamoxifen 0 nM): 39.46%
- Percent Inhibition ([2]; Table F, 4-Hydroxytamoxifen 50 nM + 4-Hydroxytamoxifen 5 nM): 48.51%
- Percent Inhibition ([2]; Table F, 4-Hydroxytamoxifen 50 nM + 4-Hydroxytamoxifen 10 nM): 51.71%
- Percent Inhibition ([2]; Table F, 4-Hydroxytamoxifen 50 nM + 4-Hydroxytamoxifen 20 nM): 46.36%
- Percent Inhibition ([2]; Table F, 4-Hydroxytamoxifen 50 nM + 4-Hydroxytamoxifen 30 nM): 42.54%
- Percent Inhibition ([2]; Table F, 4-Hydroxytamoxifen 50 nM + 4-Hydroxytamoxifen 40 nM): 48.3%
- Percent Inhibition ([2]; Table F, 4-Hydroxytamoxifen 50 nM + 4-Hydroxytamoxifen 50 nM): 50.98%
- Percent Inhibition ([2]; Table F, 4-Hydroxytamoxifen 50 nM + 4-Hydroxytamoxifen 100 nM): 58.57%
- Percent Inhibition ([2]; Table F, 4-Hydroxytamoxifen 100 nM + 4-Hydroxytamoxifen 0 nM): 46.41%
- Percent Inhibition ([2]; Table F, 4-Hydroxytamoxifen 100 nM + 4-Hydroxytamoxifen 5 nM): 52.37%
- Percent Inhibition ([2]; Table F, 4-Hydroxytamoxifen 100 nM + 4-Hydroxytamoxifen 10 nM): 50.34%
- Percent Inhibition ([2]; Table F, 4-Hydroxytamoxifen 100 nM + 4-Hydroxytamoxifen 20 nM): 47.64%
- Percent Inhibition ([2]; Table F, 4-Hydroxytamoxifen 100 nM + 4-Hydroxytamoxifen 30 nM): 48.22%
- Percent Inhibition ([2]; Table F, 4-Hydroxytamoxifen 100 nM + 4-Hydroxytamoxifen 40 nM): 51.79%
- Percent Inhibition ([2]; Table F, 4-Hydroxytamoxifen 100 nM + 4-Hydroxytamoxifen 50 nM): 55.29%
- Percent Inhibition ([2]; Table F, 4-Hydroxytamoxifen 100 nM + 4-Hydroxytamoxifen 100 nM): 61.34%
- Percent Inhibition ([2]; Table F, 4-Hydroxytamoxifen 200 nM + 4-Hydroxytamoxifen 0 nM): 45.75%
- Percent Inhibition ([2]; Table F, 4-Hydroxytamoxifen 200 nM + 4-Hydroxytamoxifen 5 nM): 54.54%
- Percent Inhibition ([2]; Table F, 4-Hydroxytamoxifen 200 nM + 4-Hydroxytamoxifen 10 nM): 51.06%
- Percent Inhibition ([2]; Table F, 4-Hydroxytamoxifen 200 nM + 4-Hydroxytamoxifen 20 nM): 52%
- Percent Inhibition ([2]; Table F, 4-Hydroxytamoxifen 200 nM + 4-Hydroxytamoxifen 30 nM): 49.75%
- Percent Inhibition ([2]; Table F, 4-Hydroxytamoxifen 200 nM + 4-Hydroxytamoxifen 40 nM): 59.13%
- Percent Inhibition ([2]; Table F, 4-Hydroxytamoxifen 200 nM + 4-Hydroxytamoxifen 50 nM): 59.05%
- Percent Inhibition ([2]; Table F, 4-Hydroxytamoxifen 200 nM + 4-Hydroxytamoxifen 100 nM): 61.13%
- Percent Inhibition ([2]; Table F, 4-Hydroxytamoxifen 400 nM + 4-Hydroxytamoxifen 0 nM): 48.85%
- Percent Inhibition ([2]; Table F, 4-Hydroxytamoxifen 400 nM + 4-Hydroxytamoxifen 5 nM): 52.28%
- Percent Inhibition ([2]; Table F, 4-Hydroxytamoxifen 400 nM + 4-Hydroxytamoxifen 10 nM): 58.29%
- Percent Inhibition ([2]; Table F, 4-Hydroxytamoxifen 400 nM + 4-Hydroxytamoxifen 20 nM): 56.61%
- Percent Inhibition ([2]; Table F, 4-Hydroxytamoxifen 400 nM + 4-Hydroxytamoxifen 30 nM): 57.28%
- Percent Inhibition ([2]; Table F, 4-Hydroxytamoxifen 400 nM + 4-Hydroxytamoxifen 40 nM): 59.68%
- Percent Inhibition ([2]; Table F, 4-Hydroxytamoxifen 400 nM + 4-Hydroxytamoxifen 50 nM): 67.28%
- Percent Inhibition ([2]; Table F, 4-Hydroxytamoxifen 400 nM + 4-Hydroxytamoxifen 100 nM): 64.92%
